Experimental data from ChEMBL document CHEMBL4619786, “Discovery of Novel Resorcinol Dibenzyl Ethers Targeting the Programmed Cell Death-1/Programmed Cell Death-Ligand 1 Interaction as Potential Anticancer Agents” (J Med Chem, 2020).
≈ marks a conversion by molar mass, not a printed value.

How the values were obtained:
[1] = target: T1, Programmed cell death protein 1/Programmed cell death 1 ligand 1 (Homo sapiens, UniProt Q9NZQ7); assay: Inhibition of human Fc-tagged PD1 N-terminal domain (Leu25 to Gln167 residues) expressed in HEK293 cells/human His-tagged PDL1 (Phe19 to Arg238 residues) expressed in HEK293 cells protein-protein interaction after 40 mins by APC-labeled anti-His antibody/Eu-labeled anti-human IgG based HTRF assay; format: cell-based
T1 sequence (Q15116 whole entry, the tested form may be a part): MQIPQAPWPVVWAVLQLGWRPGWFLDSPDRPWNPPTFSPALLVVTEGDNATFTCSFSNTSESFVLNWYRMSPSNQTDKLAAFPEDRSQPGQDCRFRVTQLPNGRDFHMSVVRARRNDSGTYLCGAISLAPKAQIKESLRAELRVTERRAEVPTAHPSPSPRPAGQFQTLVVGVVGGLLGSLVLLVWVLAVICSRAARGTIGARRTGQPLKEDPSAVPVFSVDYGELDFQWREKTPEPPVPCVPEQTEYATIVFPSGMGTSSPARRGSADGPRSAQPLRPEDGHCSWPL
T1 sequence (Q9NZQ7 whole entry, the tested form may be a part): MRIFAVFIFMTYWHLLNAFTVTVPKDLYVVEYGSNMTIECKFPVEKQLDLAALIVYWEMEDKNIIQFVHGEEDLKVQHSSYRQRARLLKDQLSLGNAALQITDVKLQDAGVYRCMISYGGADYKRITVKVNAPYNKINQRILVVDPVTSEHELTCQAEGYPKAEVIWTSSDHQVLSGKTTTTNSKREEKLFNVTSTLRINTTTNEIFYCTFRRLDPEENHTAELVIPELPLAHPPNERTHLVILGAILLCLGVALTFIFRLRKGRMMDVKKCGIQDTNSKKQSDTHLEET

[2] = target: T1, Programmed cell death protein 1/Programmed cell death 1 ligand 1; assay: Inhibition of human C-terminal Ig-Fc-tagged PD1 (Leu25 to Gln167 residues) expressed in HEK293 cells/human C-terminal epitope-His-tagged PDL1 (Phe19 to Arg238 residues) expressed in HEK293 cells protein-protein interaction preincubated for 15 mins with PDL1 followed by PD1 addition and measured after 15 mins by APC-labeled anti-His antibody/Eu-labeled anti-human IgG based HTRF assay; format: cell-based
[3] = target: T1, Programmed cell death protein 1/Programmed cell death 1 ligand 1; assay: Inhibition of human PD1/PDL1 protein-protein interaction by HTRF assay; format: protein-complex assay
[4] = Solubility of the compound in water; format: physicochemical
A549 = assay: Cytotoxicity against human A549 cells assessed as reduction in cell viability measured after 48 hrs by MTT assay; format: functional, cell-based; conditions: A549, 48 h
MCF7 = assay: Cytotoxicity against human MCF7 cells assessed as reduction in cell viability measured after 48 hrs by MTT assay; format: functional, cell-based; conditions: MCF7, 48 h
B16-F10 = assay: Cytotoxicity against mouse B16/F10 cells assessed as reduction in cell viability measured after 48 hrs by MTT assay; format: functional, cell-based; conditions: B16-F10, 48 h

Q: Which IC50 [1] does the source give for Cc1c(Nc2cccc3cc(CNCCO)cnc23)cccc1-c1ccccc1 here?
A: < 0.01 µM

Q: With Cc1c(COc2cc(OCc3cccc(C#N)c3)c(CNC(C)(C)C(=O)O)cc2Cl)cccc1-c1ccncc1 as the compound, how does the IC50 [2] read?
A: > 0.1 µM

Q: And the IC50 [3]?
A: > 0.1 µM

Q: Which IC50 [1] does the source give for COc1cc(NC(=O)c2cccc(-c3ccccc3)c2C)ccc1CN1CCN(C(C)=O)CC1 here?
A: > 10 µM

Q: Which solubility [4] does the source give for O=C(NC(Cc1cc(=O)[nH]c2ccccc12)C(=O)O)c1ccc(Cl)cc1 (stereo unspecified) [REBAMIPIDE] here?
A: 7.6 µg/mL (≈ 20.5 µM)

Q: For Cc1c(COc2cc(OCc3cccc(C#N)c3)c(CN3CCC(O)C3)cc2Cl)cccc1-c1ccc2c(c1)OCCO2 (stereo unspecified), which IC50 (A549) is on record?
A: 4.2 µM

Q: And the IC50 (MCF7)?
A: 4.4 µM

Q: And the IC50 (B16-F10)?
A: 2.3 µM

Q: And the IC50 [3]?
A: 0.0129 µM

Q: With Cc1c(COc2cc(OCc3cccc(C#N)c3)c(CN[C@H](CO)C(=O)O)cc2Cl)cccc1-c1ccccc1 as the compound, how does the IC50 (A549) read?
A: > 10 µM

Q: And the IC50 (MCF7)?
A: > 10 µM

Q: What about the IC50 (B16-F10) of the same compound?
A: > 10 µM

Q: What about the IC50 [3] of the same compound?
A: 0.008 µM

Q: Which IC50 [2] does the source give for Cc1c(COc2cc(OCc3ccnc(C#N)c3)c(CNC(C)(C)C(=O)O)cc2Cl)cccc1-c1ccc2ocnc2c1 here?
A: 0.01 µM

Q: With Cc1c(COc2cc(OCc3cccc(C#N)c3)c(CN3CC[C@H](C(=O)O)C3)cc2Cl)cccc1-c1ccc2c(c1)OCCO2 as the compound, how does the IC50 (A549) read?
A: > 10 µM

Q: And the IC50 (MCF7)?
A: > 10 µM

Q: What about the IC50 [2] of the same compound?
A: 0.0079 µM

Q: And the IC50 (B16-F10)?
A: 10.8 µM

Q: And the IC50 [3]?
A: 0.0079 µM

Q: Which IC50 [1] does the source give for Cc1c(COc2ccc3cc(CNCCO)ccc3c2)cccc1-c1ccccc1 here?
A: > 10 µM

Q: And the IC50 [3]?
A: > 10 µM
